Measurements as given in patent US7390806B2, “Antibiotics containing borinic acid complexes and methods of use” (Anacor Pharmaceuticals, Inc., priority 2002, dated 2008).
In brackets after ≈: the same amount, converted by molar mass. Where two headings read alike, the source gives them in different places.

Key:
[1] = tested on: M. tuberculosis H37Rv; experiment: Anti-mycobacterium in vitro activity, H37Rv; type: cell-based, Mycobacterium tuberculosis; settings: Sensitive strain; for MIC: Mycobacterium tuberculosis, H37RV
[2] = tested on: Candida glabrata ATCC 15126; experiment: Antifungal in vitro MIC, Candida glabrata; type: cell-based; settings: Nakaseomyces glabratus, ATCC15126; percent inhibition >= 80%; read-out: MIC Candida glabrata ATCC 15126
[3] = tested on: Candida parapsilosis ATCC 22019; experiment: Antifungal in vitro MIC, Candida parapsilosis; type: cell-based; settings: Lodderomyces parapsilosis, ATCC22019; percent inhibition >= 80%; read-out: MIC Candida parapsilosis ATCC 22019
[4] = tested on: Microsporum canis ATCC 10214; experiment: Antifungal in vitro MIC, Microsporum canis; type: cell-based; settings: Microsporum canis, ATCC10214; percent inhibition >= 80%; read-out: MIC Microsporum canis ATCC 10214
[5] = tested on: Aspergillus fumigatus ATCC 204305; experiment: Antifungal in vitro MIC, Aspergillus fumigatus; type: cell-based; settings: Aspergillus fumigatus, ATCC204305; percent inhibition >= 80%; read-out: MIC Aspergillus fumigatus ATCC 204305
[6] = tested on: Trichophyton mentagrophytes ATCC 10270; experiment: Antifungal in vitro MIC, Trichophyton mentagrophytes; type: cell-based; settings: Trichophyton mentagrophytes, ATCC10270; percent inhibition >= 80%; read-out: MIC Trichophyton mentagrophytes ATCC 10270
[7] = tested on: S. aureus ATCC 29213; experiment: MIC determination, S. aureus ATCC 29213; type: cell-based, Staphylococcus aureus; settings: for MIC: Staphylococcus aureus, read-out: MIC S. aureus ATCC 29213
[8] = tested on: S. epidermidis ATCC 12228; experiment: MIC determination, S. epidermidis ATCC 12228; type: cell-based, Staphylococcus epidermidis; settings: for MIC: Staphylococcus epidermidis, read-out: MIC S. epidermidis ATCC 12228
[9] = tested on: E. faecalis ATCC 29212; experiment: MIC determination, E. faecalis ATCC 29212; type: cell-based, Enterococcus faecalis; settings: for MIC: Enterococcus faecalis, read-out: MIC E. faecalis ATCC 29212
[10] = tested on: E. faecium CT-26; experiment: MIC determination, E. faecium CT-26; type: cell-based, Enterococcus faecium; settings: for MIC: Enterococcus faecium, read-out: MIC E. faecium CT-26
[11] = tested on: S. pneumoniae ATCC 6301; experiment: MIC determination, S. pneumoniae ATCC 6301; type: cell-based, Streptococcus pneumoniae; settings: for MIC S. pneumoniae ATCC 6301: Table 1; for MIC: Streptococcus pneumoniae
[12] = tested on: M. catarrhalis ATCC 25238; experiment: MIC determination, M. catarrhalis ATCC 25238; type: cell-based
[13] = tested on: H. influenzae ATCC 49766; experiment: MIC determination, H. influenzae ATCC 49766; type: cell-based, Haemophilus influenzae; settings: Table 2

With NC[C@H]1O[C@H](O[C@H]2[C@H](O)[C@@H](O[C@H]3O[C@H](CO)[C@@H](O)[C@H](N)[C@H]3O)[C@H](N)C[C@@H]2N)[C@H](O)[C@@H](O)[C@@H]1O [Kanamycin] the MIC [1] was < 2 µg/mL.
Compound OC(Cn1cncn1)(Cn1cncn1)c1ccc(F)cc1F [Fluconazole, reference compound] has an MIC [2] of 3 µg/mL (≈ 9.8 µM), an MIC [3] of 2.5 µg/mL (≈ 8.16 µM) and an MIC [4] of 16 µg/mL (≈ 52.2 µM). For the same compound, the MIC [5] was > 64 µg/mL and the MIC [6] was 16 µg/mL (≈ 52.2 µM).
Compound N[C@@H]1CON=C1O [cycloserine] has an MIC [1] of 8 µg/mL (≈ 78.4 µM).
With Oc1cccc2cccnc12 [Compound 51, 8-hydroxyquinoline] the “MIC S. aureus ATCC 29213” value ([7]; Table 1) was 2 micrograms per ml, the “MIC S. epidermidis ATCC 12228” value ([8]; Table 1) was 1 micrograms per ml and the “MIC E. faecalis ATCC 29212” value ([9]; Table 1) was 8 micrograms per ml. The “MIC E. faecium CT-26” value ([10]; Table 1) was 2 micrograms per ml and the “M. tuberculosis MIC H37Rv” value [1] was 0.387 µg/mL.
In the case of Oc1cccc2cccnc12 [Compound 55, 8-hydroxyquinoline], the “MIC S. aureus ATCC 29213” value ([7]; Table 1) is reported as 2 micrograms per ml, the “MIC S. epidermidis ATCC 12228” value ([8]; Table 1) is reported as 1 micrograms per ml and the “MIC S. pneumoniae ATCC 6301” value [11] is reported as 2 micrograms per ml. For the same compound, the “MIC E. faecalis ATCC 29212” value ([9]; Table 1) was 4 micrograms per ml, the “MIC E. faecium CT-26” value ([10]; Table 1) was 2 micrograms per ml and the “MIC M. catarrhalis ATCC 25238” value ([12]; Table 1) was 4 micrograms per ml. For the same compound, the “M. tuberculosis MIC H37Rv” value [1] was 0.775 µg/mL.
With Oc1cccc2cccnc12 [Compound 72, 8-hydroxyquinoline] the “MIC S. aureus ATCC 29213” value ([7]; Table 1) was 4 micrograms per ml, the “MIC S. epidermidis ATCC 12228” value ([8]; Table 1) was 2 micrograms per ml and the “MIC S. pneumoniae ATCC 6301” value [11] was 4 micrograms per ml. For the same compound, the “MIC E. faecalis ATCC 29212” value ([9]; Table 1) was 64 micrograms per ml, the “MIC E. faecium CT-26” value ([10]; Table 1) was 4 micrograms per ml and the “M. tuberculosis MIC H37Rv” value [1] was 0.775 µg/mL.
With CO[C@H]1/C=C/O[C@@]2(C)Oc3c(C)c(O)c4c(O)c(c(/C=N/N5CCN(C)CC5)c(O)c4c3C2=O)NC(=O)/C(C)=C\C=C\[C@H](C)[C@H](O)[C@@H](C)[C@@H](O)[C@@H](C)[C@H](OC(C)=O)[C@@H]1C [Rifampicin] the MIC [1] was < 0.125 µg/mL.
CO/N=C(\C(=O)N[C@@H]1C(=O)N2C(C(=O)O)=C(CSc3nc(=O)c(=O)[nH]n3C)CS[C@H]12)c1csc(N)n1 [Ceftriaxone, reference compound] gave an MIC ([7]; ATCC29213, Table 1) of 2 µg/mL (≈ 3.61 µM), an MIC ([7]; ATCC29213, Table 2) of 2 µg/mL (≈ 3.61 µM) and an MIC ([8]; ATCC12228, Table 1) of 1 µg/mL (≈ 1.8 µM). The MIC ([8]; ATCC12228, Table 2) was 1 µg/mL (≈ 1.8 µM), the MIC ([11]; ATCC6301, Table 1, read-out: MIC S. pneumoniae ATCC 6301) was 0.125 µg/mL (≈ 0.225 µM) and the MIC ([11]; ATCC6301, Table 2, read-out: MIC S. pneumonia ATCC 6301) was < 0.125 µg/mL. It also gave an MIC ([9]; ATCC29212, Table 1) of 64 µg/mL (≈ 115 µM), an MIC ([9]; ATCC29212, Table 2) of 64 µg/mL (≈ 115 µM) and an MIC ([10]; CT26, Table 1) of 64 µg/mL (≈ 115 µM). It also gave an MIC ([10]; CT26, Table 2) of 64 µg/mL (≈ 115 µM), an MIC ([12]; Moraxella catarrhalis, ATCC25238, Table 1, read-out: MIC M. catarrhalis ATCC 25238) of 0.125 µg/mL (≈ 0.225 µM) and an MIC ([13]; Haemophilus influenzae, ATCC49766) of 0.12 µg/mL (≈ 0.216 µM).
With O=C(O)c1ncccc1O [Compound 117, 3-hydroxypicolinic acid] the “MIC S. aureus ATCC 29213” value ([7]; Table 2) was 2 micrograms per ml, the “MIC S. epidermidis ATCC 12228” value ([8]; Table 2) was 1 micrograms per ml and the “MIC S. pneumonia ATCC 6301” value ([11]; Table 2) was 0.5 micrograms per ml. The “MIC E. faecalis ATCC 29212” value ([9]; Table 2) was 4 micrograms per ml, the “MIC E. faecium CT-26” value ([10]; Table 2) was 4 micrograms per ml and the “MIC H. influenzae ATCC 49766” value [13] was 16 micrograms per ml.
In the case of NNC(=O)c1ccncc1 [Isoniazid (INH), Isoniazid], the MIC [1] is reported as < 0.062 µg/mL.
[H]/N=C(/N)N[C@H]1[C@H](O)[C@@H](O)[C@H](O[C@@H]2O[C@@H](C)[C@](O)(C=O)[C@H]2O[C@@H]2O[C@@H](CO)[C@H](O)[C@@H](O)[C@@H]2NC)[C@@H](N/C(N)=N\[H])[C@@H]1O [Streptomycin] was tested, and the MIC [1] was < 2 µg/mL.
